Test results from patent publication US8133474B2, “Sensors for fluorescence and magnetic resonance imaging” (Massachusetts Institute of Technology, priority 2006, dated 2012).

What was measured:
[1] = system: HEK-293 cells; experiment: Subcellular localization by manganese atomic absorption spectroscopy of cell fractions; assay type: cell-based
Description: Cell monolayers were grown in 75-cm plates to 70% confluence and treated with 100 μM of either 2 or Mn-TPPS4, followed by incubation for 24 h. All fractionation steps were performed at 4° C. After twice pelleting by centrifugation (500×g) and washing with PBS, cells were lysed in a low-salt buffer and incubated on ice for 15 min. After centrifugation (420×g, 5 min) the pellet was resuspended in two packed-cell volumes of lysis buffer with 20 strokes of a 27-gauge syringe needle. After centrifugation (11,000×g, 20 min), the supernatant was retained (cytosolic fraction), and the nuclei were lysed in 0.42 M salt with 10 strokes of a 17-gauge syringe needle. After centrifugation (20,000×g, 5 min), the supernatant was obtained as the nuclear fraction.
Manganese atomic absorption spectroscopic analyses of samples were performed on an Aanalyst 300 instrument equipped with an HGA-800 graphite furnace (PerkinElmer, Wellesley, Mass.). Pyrolysis was performed at 1,400° C. for 30 s, and atomization was performed at 2,200° C. for 5 s.
To confirm the membrane permeability and further investigate the subcellular localization of compound 2, the cells were lysed, and nuclear and cytosolic fractions were extracted and analyzed by atomic absorption spectroscopy (AAS).

[2] = Zinc-dependent MR relaxivity in buffered solutions; assay type: physicochemical; conditions: for zinc-induced change of MR signal in buffered solution: 1 mM Zn^2+, 25 mM Pipes pH 7, T1-weighted 200 μM agent, T2-weighted 500 μM agent with 100 mM KCl; for zinc-induced T2 change at high ionic strength: 100 mM KCl, buffered solution
Description: (§1) MRI samples prepared as described above were arrayed into microtiter plates and placed in a 40-cm-bore Avance 4.7 T MRI scanner (Bruker, Billerica, Mass.). Unused wells were filled with PBS, and imaging was performed on a 2-mm slice through the sample. A spin echo pulse sequence with multiecho acquisition was used. The TR was fixed for every acquisition, and the TE was in defined increments. For example, for TR=100 ms, TE varied from 10 to 80 ms, with a 10-ms increment. To adjust further the weight between T1 and T2, various TRs were applied and the TE increment was changed accordingly, if necessary. Data matrices of 512×128 points were acquired and zero-filled to 256 points in the second (phase encoding) dimension. Images were reconstructed and analyzed by using custom routines running in Matlab (Mathworks, Natick, Mass.).
Insertion of a paramagnetic manganese(III) ion into the porphyrin core of compound 1 rendered the resulting (DPA-C2)2-TPPS3Mn(III) complex (compound 2) an MRI contrast agent. The properties of compound 2 were investigated by using a spin echo pulse sequence to collect images at several echo times (TEs) in parallel. In some experiments, the repetition times (TRs) were varied so that both T1 and T2 could be evaluated. Multiwell plates were used for sample preparation, which allowed several conditions to be investigated in parallel. The well-studied MRI T1 agent, Mn-TPPS4, which contains a similar porphyrin platform as compound 2 but lacks a zinc-binding unit, was chosen as a reference compound.
The zinc-dependent MR relaxivity of compound 2 was first investigated in buffered solutions. Solutions of compound 2 or Mn-TPPS4 in 25 mM Pipes buffer at pH 7.0 were arrayed in microtiter plates. A spin echo pulse sequence was used to acquire an MRI image. […] Addition of 1 mM ZnCl2 to a 200 μM solution of compound 2 dissolved in 25 mM Pipes buffer at pH 7 slowed down the T1 relaxation. […] The T1 values of zinc-free and zinc-saturated solutions were determined at various concentrations of compound 2, from which T1 relaxivity (R1) values could be deduced.
The surrounding wells (not shown) were filled with PBS to maintain a homogenous magnetic field to mark the positions of the samples.
The zinc-induced T2 enhancement depended on the total concentration of compound 2.

[3] = system: intracellular zinc in HEK-293 cells; experiment: Cellular MR imaging of intracellular zinc, T1 and T2 of cell pellets; assay type: cell-based; conditions: for T2 of cell pellet, zinc-treated samples: then 200 μM Zn^2+
Description: as §1
To investigate zinc-induced relaxivity changes in compound 2 inside cells, cell pellets were prepared with and without exogenously introduced zinc, and their MR images were recorded and compared. The HEK-293 cell suspension was divided equally into two flasks after a 24-h treatment with 100 μM of compound 2 or Mn-TPPS4. A 200-μM portion of zinc pyrithione was then added to one of the samples and incubated for an additional 10 min. As in the solution studies, comparisons were made by using Mn-TPPS4 as a reference compound. In addition, an untreated cell sample was prepared as a control. The cell suspensions were pelleted by centrifugation, washed, and transferred into a multiwell plate for MRI analysis. A spin echo pulse sequence was used to acquire MRI images.
T1 and T2 were determined by a series of MR images with varied TR or TE, respectively. The values reported are the average from three separate experiments with standard deviations as indicated by the horizontal bars.

[4] = system: HEK-293 cells; experiment: Cytotoxicity in HEK-293 suspension cells, cell density; assay type: cell-based; conditions: 100 μM, 24 h
[5] = Absorption spectrum in buffered neutral aqueous solution; assay type: physicochemical; conditions: Soret band centered at 416 nm; 50 mM Hepes/100 mM KCl, pH 7.0
Description: (§2) Millipore water was used to prepare all aqueous solutions. All spectroscopic measurements were performed in buffered solutions containing 50 mM of the buffering species and 100 mM KCl adjusted to the desired pH. A glass electrode (Orion, Boston, Mass.), calibrated before each use, was used to determine solution pH. Solutions of Zn^2+ were prepared from 100 mM stocks of ZnCl2 in water. Absorption spectra were recorded on a 8453A diode array spectrophotometer (Hewlett-Packard, Palo Alto, Calif.) or a Cary 50 Bio UV-visible spectrophotometer (Varian, Palo Alto, Calif.), and fluorescence spectra were obtained with a Quanta Master 4 L-format scanning spectrofluorimeter (Photon Technology International, Lawrenceville, N.J.) equipped with an LPS-220B 75-W xenon lamp and power supply, an A-1010B lamp housing with integrated igniter, a switchable 814 photon-counting/analog photomultiplier detection unit, and a MD-5020 motor driver. Samples for absorption and emission measurements were held in 1×1-cm quartz cuvettes (3.5 mL volume; Stama, Atascadero, Calif.). […] Quantum yields were determined by reference to TPPS4 [0.16 in pH=7 aqueous solution].
The spectroscopic properties of compound 1 were evaluated in buffered neutral aqueous solution (50 mM Hepes/100 mM KCl, pH 7.0). […] Excitation was provided at 418 nm for the emission spectrum, and emission was detected at 648 nm for the excitation spectrum. […]

[6] = system: intracellular Zn^2+ in HEK-293 cells; experiment: Intracellular zinc imaging by fluorescence microscopy; assay type: cell-based; conditions: 5 μM 24 h, 40 μM Zn^2+/pyrithione 10 min
Description: The cell fluorescence imaging experiments were performed with an Axiovert 200M inverted epifluorescence microscope (Zeiss, Thomwood, N.Y.) equipped with an EM-CCD digital camera C9100 (Hamamatsu Hamamatsu City, Japan) and a MS200 XY Piezo Z stage (Applied Scientific Instruments, Eugene, Oreg.). An X-Cite 120 metal-halide lamp (EXFO, Quebec, Canada) was used as the light source. The fluorescence images were obtained by using a x63 oil immersion objective lenses and a customized optical filter (exciter: D425/50; emitter: E6001p; beamsplitter: 460dcxr; Chroma Technology, Rockingham, Vt.). The microscope was operated with Volocity software (Improvision, Lexington, Mass.).
Fixed cells were investigated by fluorescence imaging using a customized optical filter (exciter: D425/50; emitter: E6001p; beamsplitter: 460dcxr), which was designed to match the excitation and emission profiles of compound 1. The cell nuclei were costained with the blue fluorescent dye Hoechst 33258 (0.4 μM). The HEK-293 cells were incubated with 5 μM of compound 1 for 24 h before fixing. […] The insets show the corresponding bright-field images (Scale bars: 25 μm).

[7] = Fluorescence metal ion selectivity; conditions: 100 μM metal ion, 5 μM compound, 50 mM Hepes/100 mM KCl, pH 7.0, excitation 418 nm
Description: as §2, with “solution]. […]” for “solution].”
Even large excesses of Na^+, K^+, Ca^2+, and Mg^2+, which are biologically relevant, potentially competing, mobile metal ions, barely perturb the fluorescence of the zinc-free and zinc-bound forms of compound 1.

[8] = system: all cell lines tested; experiment: Membrane permeability in cell lines; assay type: cell-based
Description: Suspension cultures of HEK-293 enabled production of a sizeable cell pellet, which was then plated as an adherent monolayer for fluorescence imaging studies. The monolayer cultures were subcultured five times after the initial plating, grown to 70% confluence on glass cover slips and treated with compound 1 for fluorescence imaging. The cytotoxicity of compound 1 was evaluated in these adherent HEK-293 cells by incubating them with 5 μM of compound 1 for 24 h.

[9] = Fluorescence pH profile; assay type: physicochemical; conditions: pH 10.1 to pH 4.5; 5 μM in 100 mM KCl; excitation 416 nm, integrated 550 to 800 nm
Description: The pH-sensitivity of compound 1 was then studied. In some cases, it may be advantageous to reduce fluorescence turn-on by protonation for fluorescent zinc(II) sensors, as protonation can diminish the sensitivity of the sensor to zinc by increasing the background signal intensity. […] The pH values of the solution were adjusted by adding an appropriate volume of HCl or KOH stock solution. The fluorescence spectrum was measured upon excitation at 416 nm, and the fluorescence intensity was integrated from 550 to 800 nm.

[10] = HEK-293, 100 μM 24 h, no exogenous zinc
[11] = HEK-293, 100 μM 24 h, then 200 μM zinc pyrithione 10 min

For (DPA-C2)2-Mn(III)TPPS3 [compound 2], the cell membrane permeability ([1]; AAS of lysed cell fractions) was “cell membrane-permeable”, the “Mn in cytosol (AAS)” value ([1]; cells treated with 100 μM, 24 h, cytosolic fraction) was 0.78 mg Mn/liter and the “Mn in nuclear fraction (AAS)” value ([1]; cells treated with 100 μM, 24 h, nuclear fraction) was 5.62 mg Mn/liter. For the same compound, the “zinc-induced change of MR signal in buffered solution” value [2] was “lowers the MR signal intensity”, the “zinc-induced T2 change at high ionic strength” value [2] was “zinc-induced enhancement of T2 relaxation” and the “T1 of cell pellet, zinc-free sample” value [3, 10] was 510 ms. The “T2 of cell pellet, non zinc-treated samples” value [3, 10] was 69 ms, the “T2 of cell pellet, zinc-treated samples” value ([3]; HEK-293, 100 μM 24 h) was 25.0 ms and the “T1 of cell pellet, zinc-containing sample” value [3, 11] was 80 ms. The “cell membrane permeability from relative increase in T1-weighted MR signal” value ([3]; HEK-293 cells, 100 μM, 24 h, TR=100 ms, TE=10 ms) was “greater cell membrane permeability than Mn-TPPS4” and the “cytotoxicity (cell density vs untreated control cells)” value [4] was “little cytoxicity”.
With `O=S(=O)(O)c1ccc(-c2c3nc(c(-c4ccc(S(=O)(=O)O)cc4)c4ccc([nH]4)c(-c4c(NCCN(Cc5ccccn5)Cc5ccccn5)cccc4NCCN(Cc4ccccn4)Cc4ccccn4)c4nc(c(-c5ccc(S(=O)(=O)O)cc5)c5ccc2[nH]5)C=C4)C=C3)cc1` [compound 1, (DPA-C2)2-TPPS3] the “extinction coefficient (ε) of Soret band” value [5] was 250,700 M^−1·cm^−1, the “change of intracellular red fluorescence upon addition of Zn^2+” value [6] was “significant increase in the red fluorescence intensity” and the “selectivity of fluorescence turn-on for Zn^2+ over other metal ions” value [7] was “selective for Zn^2+ over many other monovalent and divalent metal ions”. For the same compound, the membrane permeability [8] was “membrane-permeable” and the “fluorescence increase on acidification” value [9] was “less than a factor of two”.
With `O=S(=O)([O-])c1ccc(-c2c3nc(c(-c4ccc(S(=O)(=O)[O-])cc4)c4ccc([n-]4)c(-c4ccc(S(=O)(=O)[O-])cc4)c4ccc([n-]4)c(-c4ccc(S(=O)(=O)[O-])cc4)c4nc2C=C4)C=C3)cc1.[Mn+3]` [Mn-TPPS4, reference compound] the “zinc-induced change of MR signal in buffered solution” value [2] was “almost no change”, the “zinc-induced T2 change at high ionic strength” value [2] was “no zinc-induced T2 change” and the “T1 of cell pellet, absence of zinc” value [3, 10] was 1.1 s. For the same compound, the “T2 of cell pellet, non zinc-treated samples” value [3, 10] was 107 ms, the “T2 of cell pellet, zinc-treated samples” value ([3]; HEK-293, 100 μM 24 h) was 94 ms and the “T1 of cell pellet, presence of zinc” value [3, 11] was 1.0 s.
